Measurements as given in patent US11155525B2 (Sanford Burnham Prebys Medical Discovery Institute, priority 2015, dated 2021).

biological target: T1, human apelin receptor (Homo sapiens, UniProt P35414); assay: Measurement of apelin receptor agonist activity (cell-based assay determining the amount of intracellular cAMP); conditions: CHO cells stably expressing the human apelin receptor, Forskolin 10 μM, 30 minutes, 100% efficacy = [Pyr1]-apelin-13 0.300 μM, concentration giving 50% efficacy
T1 construct: host or cells: CHO cells
T1 sequence (P35414 1-380): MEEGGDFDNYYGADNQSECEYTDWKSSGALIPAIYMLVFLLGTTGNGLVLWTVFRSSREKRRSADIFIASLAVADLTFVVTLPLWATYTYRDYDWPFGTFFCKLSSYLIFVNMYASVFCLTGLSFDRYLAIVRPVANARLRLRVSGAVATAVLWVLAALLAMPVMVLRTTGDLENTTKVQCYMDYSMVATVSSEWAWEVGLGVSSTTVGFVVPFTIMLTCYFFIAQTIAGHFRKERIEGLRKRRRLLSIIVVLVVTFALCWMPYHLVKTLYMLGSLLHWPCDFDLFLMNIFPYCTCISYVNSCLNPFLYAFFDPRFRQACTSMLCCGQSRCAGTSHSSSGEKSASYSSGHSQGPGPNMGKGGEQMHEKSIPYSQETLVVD
Method: Measurement of Apelin Receptor Agonist Activity
The apelin receptor agonist activity of the compound represented by formula (I) or (II) of the present invention was measured by cell-based assay for determining the amount of intracellular cAMP.
CHO cells (DiscoveRx Corp.) stably expressing the human apelin receptor were inoculated to wells of a microtiter plate and cultured overnight at 37° C. under conditions of 5% CO2.
Each test compound and Forskolin were added to the wells at the same time. Specifically, the test compound dissolved in DMSO was diluted with a Forskolin-containing buffer [DMEM/F-12, HEPES, no phenol red (#11039, GIBCO)] to prepare a mixed solution containing the test compound at a final concentration of […] (common ratio: 3, serial dilution: 11), Forskolin at a final concentration of 10 μM, and DMSO at a final concentration of 0.3% v/v, which was then added to the wells (N═4).
After 30 minutes, the cells were lysed, and HitHunter cAMP XS+ Assay #90-0075L (DiscoveRx Corp.) was added to the cell lysate. The mixture was left overnight, and the resulting chemiluminescence signals were then detected using Analyst GT (Molecular Devices LLC.) to determine the amount of cAMP.
The amount of cAMP determined by the addition of a positive control [Pyr1]-apelin-13 (final concentration: 0.300 μM) and Forskolin (final concentration: 10 μM) at the same time was used as an index to define 100% efficacy. The amount of cAMP determined by the addition of Forskolin (final concentration: 10 μM) alone was used as an index to define 0% efficacy.
A dose response curve was prepared from the final concentration of the test compound and the determined amount of cAMP using Sigmaplot 12.0.

Row | EC50 | Structure (SMILES)
1 | 1530 nM | COc1cccc(OC)c1-n1c(SCc2cccc(C(=O)O)c2)nnc1-c1ccc(C)o1 [Example 80, 3-({[4-(2,6-Dimethoxyphenyl)-5-(5-methylfuran-2-yl)-4H-1,2,4-triazol-3-yl]sulfanyl}methyl)benzoic acid]
2 | 18 nM | COc1cccc(OC)c1-n1c(/C=C/C(=O)O)nnc1-c1ccc(C)o1 [Example 9, (2E)-3-[4-(2,6-Dimethoxyphenyl)-5-(5-methylfuran-2-yl)-4H-1,2,4-triazol-3-yl]prop-2-enoic acid]
3 | 1300 nM | COc1cccc(OC)c1-n1c(SCC(=O)O)cnc1-c1ccc(C)o1 [Example 60, {[1-(2,6-Dimethoxyphenyl)-2-(5-methylfuran-2-yl)-1H-imidazol-5-yl]sulfanyl}acetic acid]
4 | 1420 nM | COc1cccc(OC)c1-n1c(SCC(=O)O)nnc1-c1ccccc1 [Example 28, {[4-(2,6-Dimethoxyphenyl)-5-phenyl-4H-1,2,4-triazol-3-yl]sulfanyl}acetic acid]
5 | 253 nM | COc1cccc(OC)c1-n1c(SC)nnc1-c1ccc(C)o1 [Example 85, 4-(2,6-Dimethoxyphenyl)-3-(5-methylfuran-2-yl)-5-(methylsulfanyl)-4H-1,2,4-triazole]
6 | 696 nM | COc1cccc(OC)c1-n1c(CS(=O)(=O)c2nnc[nH]2)nnc1-c1ccc(C)o1 [Example 69]
7 | 111 nM | CCOC(=O)C(=O)/C=C/c1nnc(-c2ccc(C)o2)n1-c1c(OC)cccc1OC [Example 51, Ethyl (3E)-4-[4-(2,6-dimethoxyphenyl)-5-(5-methylfuran-2-yl)-4H-1,2,4-triazol-3-yl]-2-oxobut-3-enoate]
8 | 192 nM | COc1cccc(OC)c1-n1c(S)nnc1-c1cccs1 [Example 10, 4-(2,6-Dimethoxyphenyl)-5-(thiophen-2-yl)-4H-1,2,4-triazole-3-thiol]
9 | 561 nM | COc1cccc(OC)c1-n1c(SCc2cc[nH]c(=O)c2)nnc1-c1ccc(C)o1 [Example 18, 4-({[4-(2,6-Dimethoxyphenyl)-5-(5-methylfuran-2-yl)-4H-1,2,4-triazol-3-yl]sulfanyl}methyl)pyridin-2(1H)-one]
10 | 744 nM | COc1cccc(OC)c1-n1c(OCC(OC)OC)nnc1-c1ccc(C)o1 [Example 87, 3-(2,2-Dimethoxyethoxy)-4-(2,6-dimethoxyphenyl)-5-(5-methylfuran-2-yl)-4H-1,2,4-triazole]
11 | 338 nM | COc1cccc(OC)c1-n1c(CNC(=O)c2ccc(C)cc2)nnc1-c1ccc(C)o1 [Example 99, N-{[4-(2,6-Dimethoxyphenyl)-5-(5-methylfuran-2-yl)-4H-1,2,4-triazol-3-yl]methyl}-4-methylbenzamide]
12 | 48 nM | COc1cccc(OC)c1-n1c(/C=C\C(=O)O)nnc1-c1ccc(C)o1 [Example 56, (2Z)-3-[4-(2,6-Dimethoxyphenyl)-5-(5-methylfuran-2-yl)-4H-1,2,4-triazol-3-yl]prop-2-enoic acid]
13 | 57 nM | COc1cccc(OC)c1-n1c(SCC(=O)O)nnc1-c1ccc(Br)o1 [Example 26, {[5-(5-Bromofuran-2-yl)-4-(2,6-dimethoxyphenyl)-4H-1,2,4-triazol-3-yl]sulfanyl}acetic acid]
14 | 793 nM | COc1cccc(OC)c1-n1c(SCc2cccc(C(N)=O)c2)nnc1-c1ccc(C)o1 [Example 106, 3-({[4-(2,6-Dimethoxyphenyl)-5-(5-methylfuran-2-yl)-4H-1,2,4-triazol-3-yl]sulfanyl}methyl)benzamide]
15 | 261 nM | COC(=O)C(Sc1nnc(-c2ccc(C)o2)n1-c1c(OC)cccc1OC)c1ccccn1 (racemic) [Example 89, Methyl {[4-(2,6-dimethoxyphenyl)-5-(5-methylfuran-2-yl)-4H-1,2,4-triazol-3-yl]sulfanyl}(pyridin-2-yl)acetate]
16 | 701 nM | CCOC(=O)CCc1nnc(-c2ccc(C)o2)n1-c1c(OC)cccc1OC [Example 12, Ethyl 3-[4-(2,6-dimethoxyphenyl)-5-(5-methylfuran-2-yl)-4H-1,2,4-triazol-3-yl]propanoate]
17 | 1110 nM | COc1cccc(OC)c1-n1c(SCc2ccccc2)nnc1-c1ccc(C)o1 [Example 40, 3-(Benzylsulfanyl)-4-(2,6-dimethoxyphenyl)-5-(5-methylfuran-2-yl)-4H-1,2,4-triazole]

Row | EC50 | Structure (SMILES)
18 | 71 nM | COC(=O)c1ccc(CSc2nnc(-c3ccc(C)o3)n2-c2c(OC)cccc2OC)cc1 [Example 81, Methyl 4-({[4-(2,6-dimethoxyphenyl)-5-(5-methylfuran-2-yl)-4H-1,2,4-triazol-3-yl]sulfanyl}methyl)benzoate]
19 | 208 nM | COC(=O)c1cccc(CSc2nnc(-c3ccc(C)o3)n2-c2c(OC)cccc2OC)c1 [Example 79, Methyl 3-({[4-(2,6-dimethoxyphenyl)-5-(5-methylfuran-2-yl)-4H-1,2,4-triazol-3-yl]sulfanyl}methyl)benzoate]
20 | 103 nM | COc1cccc(OC)c1-n1c(SCP(=O)(O)O)nnc1-c1ccc(C)o1 [Example 102, ({[4-(2,6-Dimethoxyphenyl)-5-(5-methylfuran-2-yl)-4H-1,2,4-triazol-3-yl]sulfanyl}methyl)phosphonic acid]
21 | 1 nM | COc1cccc(OC)c1-n1c(SCc2cc(=O)n3cc(C)ccc3n2)nnc1-c1ccc(C)o1 [Example 2, 2-({[4-(2,6-Dimethoxyphenyl)-5-(5-methylfuran-2-yl)-4H-1,2,4-triazol-3-yl]sulfanyl}methyl)-7-methyl-4H-pyrido[1,2-a]pyrimidin-4-one]
22 | 2870 nM | COc1cccc(OC)c1-n1c(SCC(=O)O)nnc1-c1cccnc1 [Example 27, {[4-(2,6-Dimethoxyphenyl)-5-(pyridin-3-yl)-4H-1,2,4-triazol-3-yl]sulfanyl}acetic acid]
23 | 128 nM | COc1cccc(OC)c1-n1c(SCc2cccnn2)nnc1-c1ccc(C)o1 [Example 75, 3-({[4-(2,6-Dimethoxyphenyl)-5-(5-methylfuran-2-yl)-4H-1,2,4-triazol-3-yl]sulfanyl}methyl)pyridazine]
24 | 587 nM | COc1cccc(OC)c1-n1c(SCc2n[nH]c(=O)o2)nnc1-c1ccc(C)o1 [Example 101, 5-({[4-(2,6-Dimethoxyphenyl)-5-(5-methylfuran-2-yl)-4H-1,2,4-triazol-3-yl]sulfanyl}methyl)-1,3,4-oxadiazol-2(3H)-one]
25 | 2440 nM | COc1cccc(OC)c1-n1c(SCC(=O)O)nnc1C1CCCC1 [Example 33, {[5-Cyclopentyl-4-(2,6-dimethoxyphenyl)-4H-1,2,4-triazol-3-yl]sulfanyl}acetic acid]
26 | 2020 nM | COc1cccc(OC)c1-n1c(-c2ccc(C)o2)nnc1S(C)(=O)=O [Example 86, 4-(2,6-Dimethoxyphenyl)-3-(5-methylfuran-2-yl)-5-(methylsulfonyl)-4H-1,2,4-triazole]
27 | 1330 nM | COc1cccc(OC)c1-n1c(CSc2nnc[nH]2)nnc1-c1ccc(C)o1 [Example 68, 4-(2,6-Dimethoxyphenyl)-3-(5-methylfuran-2-yl)-5-[(4H-1,2,4-triazol-3-ylsulfanyl)methyl]-4H-1,2,4-triazole]
28 | 34 nM | COc1cccc(OC)c1-n1c(SCc2ccccc2C(=O)O)nnc1-c1ccc(C)o1 [Example 78, 2-({[4-(2,6-Dimethoxyphenyl)-5-(5-methylfuran-2-yl)-4H-1,2,4-triazol-3-yl]sulfanyl}methyl)benzoic acid]
29 | 1410 nM | CCc1nnc(-c2ccc(C)o2)n1-c1c(OC)cccc1OC [Example 17, 4-(2,6-Dimethoxyphenyl)-3-ethyl-5-(5-methylfuran-2-yl)-4H-1,2,4-triazole]
30 | 71 nM | COc1cccc(OC)c1-n1c(SCc2nc(=O)o[nH]2)nnc1-c1ccc(C)o1 [Example 94, 3-({[4-(2,6-Dimethoxyphenyl)-5-(5-methylfuran-2-yl)-4H-1,2,4-triazol-3-yl]sulfanyl}methyl)-1,2,4-oxadiazol-5(2H)-one]
31 | 31 nM | COc1cccc(OC)c1-n1c(S)nnc1-c1ccc(C)o1 [Example 1, 4-(2,6-Dimethoxyphenyl)-5-(5-methylfuran-2-yl)-4H-1,2,4-triazole-3-thiol]
32 | 11 nM | COc1cccc(OC)c1-n1c(SC(Cc2ccccc2)C(=O)O)nnc1-c1ccc(C)o1 (stereo not drawn) [Example 39, 2-{[4-(2,6-Dimethoxyphenyl)-5-(5-methylfuran-2-yl)-4H-1,2,4-triazol-3-yl]sulfanyl}-3-phenylpropanoic acid]
33 | 87 nM | COc1cccc(OC)c1-n1c(SCCCC(=O)O)nnc1-c1ccc(C)o1 [Example 22, 4-{[4-(2,6-Dimethoxyphenyl)-5-(5-methylfuran-2-yl)-4H-1,2,4-triazol-3-yl]sulfanyl}butanoic acid]
